# Data: PMC5423974 (European Journal of Clinical Pharmacology, 2017)
# Key:
# Format in all cases: in vivo, human
# [1] = Dose-exposure proportionality of AUC and Cmax (Power model, scatter plots)
# Protocol: Dose-exposure proportionality for AUC and Cmax was assessed for non-Japanese Asian subjects using data from Study 86, and for the pooled analysis Western group by applying the Power model to data from the pooled analysis: Log(Y) = α + β•log(Dose) + ε, where Y = AUC or Cmax. Intercept and slope estimates (including point estimate, standard error, and 90% confidence interval [CI]) were provided for each parameter, and dose proportionality plots were generated for AUC and Cmax. All statistical analyses were performed using SAS version 9.2.
# ABCG2 = assay: Pharmacogenetic association of genetic variants with dose-normalized PK (linear regression, additive model; random effects meta-analysis)
# Protocol: (§1) Five of the six genetic variants analyzed (CYP2C19*2, CYP2C19*3, CYP2C19*17, UGT1A1*6, ABCG2 421C > A) were single nucleotide polymorphisms while one genetic variant was a tandem repeat (UGT1A1*28.) Genotyping of the variants was performed using a Luminex CYP2C19 assay (for CYP2C19*2, CYP2C19*3 and CYP2C19*17), Taqman assays (for UGT1A1*6 and ABCG2 421C > A), and fragment analysis (for UGT1A1*28).
# (§2) Each genetic variant was tested for any association with dose-normalized AUC, AUC0–12 or Cmax, using linear regression under an additive genetic model (i.e. phenotypic response per additional copy of the variant allele, where 0, 1 or 2 copies can be present at each locus). For each PK parameter Bonferroni’s correction was used to control for multiple testing when assessing statistical significance. A p value below 0.008 (p < 0.05 with Bonferoni correction for 6 tests) was considered statistically significant. Given the variation in frequency of the variant alleles, analyses were performed stratified by ethnic group (Asian, White, Black) across the studies. A combined estimate across populations was obtained using random effects meta-analysis to allow for between-population heterogeneity.
# (§3) Genotype distributions were tested for deviation from Hardy-Weinberg equilibrium using Chi-squared tests. All pharmacogenetic analyses were performed using either StataSE version 14.1 or R statistical software version 3.2.2.
# CYP2C19 = assay: as above
# Protocol: as §1, §2, §3
# UGT1A1 = assay: as above
# Protocol: as §1, §2, §3
# [2] = combined across ethnicities, random effects meta-analysis, N 87
# [3] = CYP219C*2, combined across ethnicities, random effects meta-analysis, N 87
# [4] = CYP219C*3, combined analysis, N 42
# [5] = CYP219C*17, combined across ethnicities, random effects meta-analysis, N 87
# [6] = UGTA1*6, combined analysis, N 42
# [7] = UGTA1*28/37, combined across ethnicities, random effects meta-analysis, N 87
structure (smiles),measurement,setting,value
"Cn1cnc2c(F)c(Nc3ccc(Br)cc3Cl)c(C(=O)NOCCO)cc21 [selumetinib, Selumetinib]","dose-exposure proportionality (visual assessment of scatter plots, AUC and Cmax)","[1]; Western group, single doses of 25 to 75 mg",Approximate dose proportionality
same,"dose-exposure proportionality (visual assessment of scatter plots, AUC and Cmax)","[1]; non-Japanese Asian group, 25 to 50 mg",approximate dose proportionality
same,"Beta, per-allele change in DN AUC","ABCG2; Black, N 21",0.018 log ng.h/mL/mg
same,"Beta, per-allele change in DN AUC(0–12)","ABCG2; Black, N 21",-0.020 log ng.h/mL/mg
same,"Beta, per-allele change in DN Cmax","ABCG2; Black, N 21",-0.463 log ng/mL/mg
same,"Beta, per-allele change in DN AUC","ABCG2; East Asian, N 42",0.042 log ng.h/mL/mg
same,"Beta, per-allele change in DN AUC(0–12)","ABCG2; East Asian, N 42",0.043 log ng.h/mL/mg
same,"Beta, per-allele change in DN Cmax","ABCG2; East Asian, N 42",0.104 log ng/mL/mg
same,"Beta, per-allele change in DN AUC","ABCG2; White, N 24",-0.116 log ng.h/mL/mg
same,"Beta, per-allele change in DN AUC(0–12)","ABCG2; White, N 24",-0.093 log ng.h/mL/mg
same,"Beta, per-allele change in DN Cmax","ABCG2; White, N 24",-0.119 log ng/mL/mg
same,"Beta, per-allele effect on DN AUC",ABCG2; [2],0.028 log ng.h/mL/mg
same,"Beta, per-allele effect on DN AUC(0–12)",ABCG2; [2],0.029 log ng.h/mL/mg
same,"Beta, per-allele effect on DN Cmax",ABCG2; [2],0.015 log ng/mL/mg
same,"Beta, per-allele change in DN AUC","CYP2C19; CYP219C*2, Black, N 21",-0.043 log ng.h/mL/mg
same,"Beta, per-allele change in DN AUC(0–12)","CYP2C19; CYP219C*2, Black, N 21",-0.010 log ng.h/mL/mg
same,"Beta, per-allele change in DN Cmax","CYP2C19; CYP219C*2, Black, N 21",-0.110 log ng/mL/mg
same,"Beta, per-allele change in DN AUC","CYP2C19; CYP219C*2, East Asian, N 42",0.009 log ng.h/mL/mg
same,"Beta, per-allele change in DN AUC(0–12)","CYP2C19; CYP219C*2, East Asian, N 42",0.011 log ng.h/mL/mg
same,"Beta, per-allele change in DN Cmax","CYP2C19; CYP219C*2, East Asian, N 42",-0.064 log ng/mL/mg
same,"Beta, per-allele change in DN AUC","CYP2C19; CYP219C*2, White, N 24",0.198 log ng.h/mL/mg
same,"Beta, per-allele change in DN AUC(0–12)","CYP2C19; CYP219C*2, White, N 24",0.242 log ng.h/mL/mg
same,"Beta, per-allele change in DN Cmax","CYP2C19; CYP219C*2, White, N 24",0.167 log ng/mL/mg
same,"Beta, per-allele effect on DN AUC",CYP2C19; [3],0.042 log ng.h/mL/mg
same,"Beta, per-allele effect on DN AUC(0–12)",CYP2C19; [3],0.069 log ng.h/mL/mg
same,"Beta, per-allele effect on DN Cmax",CYP2C19; [3],-0.010 log ng/mL/mg
same,"Beta, per-allele change in DN AUC","CYP2C19; CYP219C*3, East Asian, N 42",0.063 log ng.h/mL/mg
same,"Beta, per-allele change in DN AUC(0–12)","CYP2C19; CYP219C*3, East Asian, N 42",0.096 log ng.h/mL/mg
same,"Beta, per-allele change in DN Cmax","CYP2C19; CYP219C*3, East Asian, N 42",0.122 log ng/mL/mg
same,"Beta, per-allele effect on DN AUC",CYP2C19; [4],0.063 log ng.h/mL/mg
same,"Beta, per-allele effect on DN AUC(0–12)",CYP2C19; [4],0.096 log ng.h/mL/mg
same,"Beta, per-allele effect on DN Cmax",CYP2C19; [4],0.122 log ng/mL/mg
same,"Beta, per-allele change in DN AUC","CYP2C19; CYP219C*17, Black, N 21",0.090 log ng.h/mL/mg
same,"Beta, per-allele change in DN AUC(0–12)","CYP2C19; CYP219C*17, Black, N 21",0.089 log ng.h/mL/mg
same,"Beta, per-allele change in DN Cmax","CYP2C19; CYP219C*17, Black, N 21",0.086 log ng/mL/mg
same,"Beta, per-allele change in DN AUC","CYP2C19; CYP219C*17, East Asian, N 42",-0.104 log ng.h/mL/mg
same,"Beta, per-allele change in DN AUC(0–12)","CYP2C19; CYP219C*17, East Asian, N 42",-0.139 log ng.h/mL/mg
same,"Beta, per-allele change in DN Cmax","CYP2C19; CYP219C*17, East Asian, N 42",-0.142 log ng/mL/mg
same,"Beta, per-allele change in DN AUC","CYP2C19; CYP219C*17, White, N 24",-0.116 log ng.h/mL/mg
same,"Beta, per-allele change in DN AUC(0–12)","CYP2C19; CYP219C*17, White, N 24",-0.127 log ng.h/mL/mg
same,"Beta, per-allele change in DN Cmax","CYP2C19; CYP219C*17, White, N 24",0.041 log ng/mL/mg
same,"Beta, per-allele effect on DN AUC",CYP2C19; [5],0.004 log ng.h/mL/mg
same,"Beta, per-allele effect on DN AUC(0–12)",CYP2C19; [5],-0.014 log ng.h/mL/mg
same,"Beta, per-allele effect on DN Cmax",CYP2C19; [5],0.037 log ng/mL/mg
same,"Beta, per-allele change in DN AUC","UGT1A1; UGTA1*6, East Asian, N 42",0.061 log ng.h/mL/mg
same,"Beta, per-allele change in DN Cmax","UGT1A1; UGTA1*6, East Asian, N 42",0.073 log ng/mL/mg
same,"Beta, per-allele effect on DN AUC",UGT1A1; [6],0.061 log ng.h/mL/mg
same,"Beta, per-allele effect on DN Cmax",UGT1A1; [6],0.073 log ng/mL/mg
same,"Beta, per-allele change in DN AUC","UGT1A1; UGTA1*28/37, Black, N 21",0.052 log ng.h/mL/mg
same,"Beta, per-allele change in DN Cmax","UGT1A1; UGTA1*28/37, Black, N 21",0.048 log ng/mL/mg
same,"Beta, per-allele change in DN AUC","UGT1A1; UGTA1*28/37, East Asian, N 42",-0.153 log ng.h/mL/mg
same,"Beta, per-allele change in DN Cmax","UGT1A1; UGTA1*28/37, East Asian, N 42",-0.152 log ng/mL/mg
same,"Beta, per-allele change in DN AUC","UGT1A1; UGTA1*28/37, White, N 24",-0.033 log ng.h/mL/mg
same,"Beta, per-allele change in DN Cmax","UGT1A1; UGTA1*28/37, White, N 24",0.190 log ng/mL/mg
same,"Beta, per-allele effect on DN AUC",UGT1A1; [7],-0.055 log ng.h/mL/mg
same,"Beta, per-allele effect on DN Cmax",UGT1A1; [7],0.016 log ng/mL/mg
